{
  "source": "patent US10738041B2",
  "about": "“Ferroportin inhibitors” (Vifor (International) AG, priority 2015, dated 2020)",
  "key": {"ferroportin": {"biological_target": "T1, ferroportin (Homo sapiens, UniProt Q9NP59)", "T1 construct": "host or cells: T47D cells", "T1 sequence (Q9NP59 1-571)": "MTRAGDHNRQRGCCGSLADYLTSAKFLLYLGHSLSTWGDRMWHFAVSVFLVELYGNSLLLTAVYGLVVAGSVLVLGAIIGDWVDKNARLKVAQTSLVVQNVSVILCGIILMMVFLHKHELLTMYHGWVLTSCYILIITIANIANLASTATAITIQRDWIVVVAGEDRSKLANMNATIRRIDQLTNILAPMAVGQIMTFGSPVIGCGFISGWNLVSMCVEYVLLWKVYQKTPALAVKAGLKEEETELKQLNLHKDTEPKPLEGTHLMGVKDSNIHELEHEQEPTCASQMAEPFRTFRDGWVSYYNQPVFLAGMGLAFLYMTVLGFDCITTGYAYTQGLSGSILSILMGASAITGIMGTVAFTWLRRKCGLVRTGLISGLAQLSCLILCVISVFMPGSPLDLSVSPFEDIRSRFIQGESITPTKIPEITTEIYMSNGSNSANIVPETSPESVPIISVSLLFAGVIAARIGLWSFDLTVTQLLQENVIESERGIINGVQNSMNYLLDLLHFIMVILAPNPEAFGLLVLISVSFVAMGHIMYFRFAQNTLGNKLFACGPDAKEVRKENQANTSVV", "assay": "Inhibition of Iron Efflux by Ferroportin Inhibitors", "assay_type": "cell-based", "details": "T47D cells, 58Fe in supernatant, 20 h; representative (FIG. 2)", "procedure": "The activity of hepcidin and ferroportin inhibitor compounds regarding their ability to block iron export via ferroportin was tested on T47D cells (ECACC, Cat. 85102201) as described below.\nCells were plated in 24-well plates (Greiner, Cat. 662160) containing 350,000 cells/well and incubated overnight with 100 μM ^58Fe (^58Fe(II)-Sulfate, Vifor Pharma Batch No. ROR 3085) in 500 μM L-Ascorbic Acid (Sigma Aldrich, Cat. 795437) containing growth medium. […] A serial dilution of hepdicin (Bachem) or ferroportin inhibitors (4 μM-0.0064 μM, 5 fold dilution) was added in a total volume of 0.6 ml per well. Cells were incubated at 37° C. with 5% CO2 for 20 h. Supernatants were collected and ^58Fe was measured using inductively coupled plasma mass spectrometry (ICP-MS, Thermo Scientific, Element 2). Pellets were harvested for protein concentration measurements. Results are plotted as ng^58Fe in supernatant per mg protein in cell lysates."}, "naïve WT C57BL/6 mice": {"test_system": "naïve WT C57BL/6 mice", "assay": "Hypoferremia in naïve mice", "assay_type": "in vivo, mouse", "details": "Mus musculus, po, 3 h, naïve WT C57BL/6 mice, relative to vehicle, read-out: Serum Iron Reduction at 3 h (%)", "procedure": "Female C57BL/6 mice (Janvier, France) at age of 9 weeks were fed a standard diet (Harlan Provimi Kliba 3436) and treated per os (p.o.) with compounds or the corresponding amount of vehicle at a volume of 10 ml/kg body weight. Fpn inhibitors were formulated in 0.5% methylcellulose/water or 20% cremophor EL/water and dosed p.o. in mice at 10, 30 or 100 mg/kg body weight. Three hours later, mice were pre terminally anesthetized in isoflurane chambers and blood was collected by retro-orbital bleeding. Mice were sacrificed by cervical dislocation and spleens, livers and duodena were harvested and used for biomarker analysis. All experiments have been conducted in compliance with the license approved by the responsible veterinarian authorities. Serum was isolated by centrifugation of blood into gel-containing microtainers and serum iron was determined by the MULTIGENT Iron assay (Abbott Diagnostics, 6K95). Eight mice per group were used and one-way ANOVA with Bonferroni's multiple comparison test was performed to analyze the statistical differences between the experimental groups."}, "b2m−/− mice [1]": {"test_system": "b2m−/− mice", "assay": "Correction of hyperferremia in beta2-microglobulin deficient mice", "assay_type": "in vivo, mouse", "details": "blood collected 1 or 3 hours after administration (time not given)", "from_the_text": "Mutations in genes involved in sensing the systemic iron stores, such as hepcidin (Hamp1), hemochromatosis protein (HFE), hemojuvelin (HJV) and transferrin receptor 2 (TFR2) cause iron overload in mice and men. HFE, HJV and TFR2 molecules on hepatocytes are necessary for signaling of appropriate hepcidin production and their deficiency results in pathophysiologically low hepcidin levels and excessive iron absorption. HFE mutations is the most frequent cause of hereditary hemochromatosis (HH) in Caucasian adults. HFE is a MHC class I-like membrane molecule that associates with beta 2-microglobulin and participates in hepcidin transcriptional regulation through the bone morphogenetic protein receptor (BMPR) pathway. HFE−/− mice have decreased hepcidin levels, develop hyperferremia and high hepatic iron levels, which makes them a suitable animal model for studying iron overload in humans (Zhou, 1998). Mice deficient in beta 2-microglobulin (b2m−/−) develop hyperferremia and hemochromatosis similarly to HFE−/− animals, as beta 2-microglobulin is necessary for the cell-surface expression and function of HFE (Rothenberg and Voland, 1996). Due to the unavailability of HFE−/− mice, b2m−/− mice were used as a model of iron overload.\nFemale and male homozygous b2m−/− mice were supplied from Jackson Laboratories (B6.129P2-B2mtm1Unc/J, Stock Number: 002087) at age of 6 to 7 weeks and fed standard diet (Harlan Provimi Kliba 3436) ad libitum. Age and gender matched WT C57BL/6 mice were supplied by Charles River. To study the acute effects of ferroportin (Fpn) inhibitors in iron overload b2m−/− mice were treated with compounds or the corresponding amount of vehicle at a volume of 10 ml/kg body weight. […] WT controls received only vehicle. Three hours later, mice were pre-terminally anesthetized in isoflurane chambers and blood was collected by retro-orbital bleeding. Mice were sacrificed by cervical dislocation and spleens, livers and duodena were harvested and used for biomarker analysis. All experiments have been performed in compliance with license approved by the responsible veterinarian authorities. Serum was isolated by centrifugation of blood into gel-containing microtainers (BD Biosciences) and serum iron was determined by the MULTIGENT Iron assay (Abbott Diagnostics, Cat. 6K95). Four to nine mice per group were used and one-way ANOVA with Bonferroni's multiple comparison test was applied to analyze the statistical differences between the experimental groups."}, "b2m−/− mice [2]": {"test_system": "b2m−/− mice", "assay": "Prevention of iron overload in beta2-microglobulin deficient mice", "assay_type": "in vivo, mouse", "details": "14 day treatment; for 58Fe Liver Iron Reduction (%): ICP-MS; for Total Liver Iron Reduction (%) / Total Spleen Iron Increase (%): ICP-OES", "procedure": "The efficacy of the Fpn inhibitors to prevent liver iron accumulation in b2m−/− mice was investigated. Three weeks old b2−/− mice fed LID were dosed with either Fpn inhibitor or vehicle (methylcellulose; 10 ml/kg). Mice had access to drinking water supplemented with 1 mM^58Fe(II)-sulfate and 10 mM ascorbic acid. Dosing of Fpn inhibitor or vehicle followed by exposure to iron-containing water was repeated for 14 days. Mice were euthanized and the liver and spleen iron contents were analyzed by ICP-OES (all iron isotopes) and liver tissue was also analyzed for ^58Fe concentration (ICP-MS)."}},
  "note": "Marks after values point to notes of the source that are not given here.",
  "data": [
    {"smiles": "O=C(NCc1ncccc1F)c1coc(CCNCCc2nc3ccccc3[nH]2)n1", "note": "[Example 127]", "values": [
      {"measurement": "IC50", "setting": "ferroportin", "result": 80, "unit": "nM"},
      {"measurement": "inhibition in vivo at 10 mg/kg", "setting": "naïve WT C57BL/6 mice; Dose 10 mg/kg p.o.", "result": 17, "unit": "%"},
      {"measurement": "inhibition in vivo at 30 mg/kg", "setting": "naïve WT C57BL/6 mice; Dose 30 mg/kg p.o.", "result": 47, "unit": "%"},
      {"measurement": "inhibition in vivo at 100 mg/kg", "setting": "naïve WT C57BL/6 mice; Dose 100 mg/kg p.o.", "result": 54, "unit": "%"},
      {"measurement": "Serum Iron Reduction (%)", "setting": "b2m−/− mice [1]; female, Dose 20 mg/kg oral", "result": "47*** %"},
      {"measurement": "Serum Iron Reduction (%)", "setting": "b2m−/− mice [1]; female, Dose 60 mg/kg oral", "result": "74*** %"},
      {"measurement": "Serum Iron Reduction (%)", "setting": "b2m−/− mice [1]; male, Dose 20 mg/kg oral", "result": 21, "unit": "%"},
      {"measurement": "Serum Iron Reduction (%)", "setting": "b2m−/− mice [1]; male, Dose 60 mg/kg oral", "result": "83** %"},
      {"measurement": "58Fe Liver Iron Reduction (%)", "setting": "b2m−/− mice [2]; female, 20 mg/kg p.o. b.i.d.", "result": 34, "unit": "%"},
      {"measurement": "Total Liver Iron Reduction (%)", "setting": "b2m−/− mice [2]; female, 20 mg/kg p.o. b.i.d.", "result": "−38", "unit": "%"},
      {"measurement": "Total Spleen Iron Increase (%)", "setting": "b2m−/− mice [2]; female, 20 mg/kg p.o. b.i.d.", "result": "71* %"},
      {"measurement": "58Fe Liver Iron Reduction (%)", "setting": "b2m−/− mice [2]; female, 60 mg/kg p.o. b.i.d.", "result": "63*** %"},
      {"measurement": "Total Liver Iron Reduction (%)", "setting": "b2m−/− mice [2]; female, 60 mg/kg p.o. b.i.d.", "result": 2, "unit": "%"},
      {"measurement": "Total Spleen Iron Increase (%)", "setting": "b2m−/− mice [2]; female, 60 mg/kg p.o. b.i.d.", "result": 51, "unit": "%"},
      {"measurement": "58Fe Liver Iron Reduction (%)", "setting": "b2m−/− mice [2]; male, 20 mg/kg p.o. b.i.d.", "result": "71*** %"},
      {"measurement": "Total Liver Iron Reduction (%)", "setting": "b2m−/− mice [2]; male, 20 mg/kg p.o. b.i.d.", "result": "50** %"},
      {"measurement": "Total Spleen Iron Increase (%)", "setting": "b2m−/− mice [2]; male, 20 mg/kg p.o. b.i.d.", "result": "−7", "unit": "%"},
      {"measurement": "58Fe Liver Iron Reduction (%)", "setting": "b2m−/− mice [2]; male, 60 mg/kg p.o. b.i.d.", "result": "73*** %"},
      {"measurement": "Total Liver Iron Reduction (%)", "setting": "b2m−/− mice [2]; male, 60 mg/kg p.o. b.i.d.", "result": "65*** %"},
      {"measurement": "Total Spleen Iron Increase (%)", "setting": "b2m−/− mice [2]; male, 60 mg/kg p.o. b.i.d.", "result": "−16", "unit": "%"}
    ]}
  ]
}
